Source: publication PMC5431435, “A short artificial antimicrobial peptide shows potential to prevent or treat bone infections” (Scientific Reports, 2017)

Columns and labels:
[1] = test system: S. aureus internalized in human primary osteoblast-like cells; test: Effect against internalized bacteria; format: cell-based, Staphylococcus aureus; settings: CM with 1% FCS, n = 7
Method: Human primary osteoblast-like cells were cultivated in 24-well plates with cultivation medium until they reached a minimum confluence of 80%. For the experiment, cells were washed and S. aureus (ATCC 29213) in cultivation medium added (~2 × 10^7 cfu/ml). After an incubation of 45 minutes, extracellular bacteria were killed using 200 µg/ml gentamicin dissolved in CM with 10% FCS, without P/S. After 1 hour incubation, gentamicin solution was removed, cells washed three times and AMP2 (33 and 67 µg/ml) in CM with only 1% FCS + no P/S added for 4 and 24 hours. As reference, 7.5 µg/ml rifampicin was used. All incubation steps were done in an incubator with 37 °C, 95% humidity and 5% CO2. For determination of the internalized bacteria, cells were lysed and the supernatant plated on CA plates. Experiment were done with n = 7.

S. aureus biofilm = test: Biofilm assay by microcalorimetry and plating (MBCB); format: cell-based, Staphylococcus aureus; settings: for inhibition of the biofilm compared to the growth control: MH++, n = 6
Method: To confirm MIC of the AMP2 by isothermal microcalorimetry, three different bouillons were tested: Mueller-Hinton II bouillon with adjusted cations (MH^++; BBL, Germany), Mueller-Hinton bouillon with low cations (MH^+; with 3–4 mg/l Ca^2+ and 5–6 mg/l Mg^2+; Oxoid, Germany) and Mueller-Hinton bouillon without cations (MH^−; Merck, Germany). AMP2 concentrations of 2–33 µg/ml were tested with the three different bouillons and gentamicin concentrations of 0.125–2 µg/ml were analyzed with MH^++. Staphylococcus aureus (ATCC 29213, 300 µl with 10^5 cfu/ml) was added to each microcalorimetry glass ampoule (Waters; Germany) containing 3.7 ml of AMP or gentamicin solution of (n = 3). The ampoules were hermetically sealed and heat flow (W) was measured for 24 hours in the calorimeter TAM III (TA Instruments, USA). For the biofilm assay, S. aureus biofilm was grown on glass beads (4 mm diameter, 60 µm pores; ROBU Glasfilter-Geräte, Germany) in MH^++ bouillon at 37 °C in an aerobe atmosphere for 24 hours. After washing with sodium chloride, beads were incubated with AMP2 (133, 267, 533 µg/ml) or daptomycin (128 µg/ml) in MH^++ bouillon for another 24 hours at 37 °C. Beads were washed again and added to the glass ampoule with fresh MH^++ bouillon. The total heat (J) was measured for 48 hours in the calorimeter. A concentration, which inhibits minimum 90% of biofilm, can be defined as the minimal biofilm inhibitory concentration (MICB). All samples were tested with n = 6.
Furthermore, the MBC for biofilms (MBCB) where 99.9% of all bacteria are killed was determined. After measurement, bouillon and glass beads were plated on CA plates and incubated for 24 hours at 37 °C in an aerobe atmosphere.

KRRWRIWLV [AMP2, 9mer cationic antimicrobial peptide … from an optimized peptide library]
internalized bacteria compared to 0 μg/ml AMP [= 100%] ([1]; 33 μg/ml, 4 h): 39% | internalized bacteria compared to 0 μg/ml AMP [= 100%] ([1]; 33 μg/ml, 24 h): 3% | internalized bacteria compared to 0 μg/ml AMP [= 100%] ([1]; 67 μg/ml, 4 h): 16% | internalized bacteria compared to 0 μg/ml AMP [= 100%] ([1]; 67 μg/ml, 24 h): 0.18% | inhibition of the biofilm compared to the growth control (S. aureus biofilm; 133 µg/ml AMP2, total heat after 48 hours): 13 ± 4% | inhibition of the biofilm, single samples (S. aureus biofilm; 267 µg/ml AMP2, five of the six samples (the sixth completely killed the bacteria)): 18–38% | inhibition of the biofilm compared to the growth control (S. aureus biofilm; 267 µg/ml AMP2, total heat after 48 hours): 35 ± 29% | killing of the biofilm (MBCB determination by plating samples and glass beads) (S. aureus biofilm; 533 µg/ml AMP2, all samples, no growth on agar plates): totally killed | inhibition of the biofilm compared to the growth control (S. aureus biofilm; 533 µg/ml AMP2, total heat after 48 hours): 97 ± 1%
